This note sets out measurements from US11484608B2, “Non-invasive assessment of hepatic mitochondrial metabolism by positional isotopomer NMR tracer analysis (PINTA)” (YALE UNIVERSITY, priority 2017, dated 2022).

Data set [1] has as its system hepatic mitochondrial fluxes (VPC, VCS). Description: PINTA / ex vivo NMR tracer study in rats infused with [3-^13C]lactate and [3-^3H]glucose (Example 1). Particulars: for VPDH/VCS (%) / VPK+ME/VPC+PDH (%): rat liver; for VPDH/VCS (%) / VPK+ME/VPC+PDH (%) / VPC/VEGP (%): 120 min [3-^13C]lactate infusion, mean ± S.E.M.; for VPC/VEGP (%): rats. From the text:
Male Sprague-Dawley rats (˜10 weeks of age) were ordered from Charles River (Wilmington, Mass.) at ˜300 g and fed regular chow unless otherwise specified. […] Prior to studies, rats underwent surgery under general isoflurane anesthesia to place polyethylene catheters in the jugular vein and common carotid artery (PE90 and PE50 tubing, respectively; Instech, Plymouth Meeting, Pa.). After 1 week, recovery was verified by confirming that the rats had regained their surgical weight. Unless otherwise specified, all experiments were performed following an overnight fast (16 hrs food withdrawal prior to sacrifice). In both the rodent and human studies, data are represented as the mean of two technical replicates for each subject (i.e. two technical replicates per biological replicate). Sample sizes were selected to give power to detect moderate to large differences between groups (n=5-6 per group), and all animals were included in the final analysis.
The investigator performing the animal studies was not blinded for practical reasons, but the investigators analyzing fluxes were blinded as to the group allocation.
The flux calculations required the following equations using [^13C] glucose positional enrichment in plasma or liver, determined by NMR and GC/MS mass spectrometry. VPC is the rate of pyruvate carboxylase flux as determined from the anaplerotic flow into oxaloacetate (OAA). VCS is defined as the flux of the citrate synthase reaction in the citric acid cycle. […] G2 denotes [m+2] glucose arising from the condensation of two singly-labeled trioses.
GC/MS was used to measure m+1 and m+2 [^13C]glucose enrichment. The total m+1 and m+2 [^13C]glucose enrichment was measured using a pentaacetate derivative: plasma or liver samples were deproteinized using 5 volumes of methanol, dried, and derivatized with 75 μL of 1:1 acetic anhydride:pyridine. After heating to 65° C. for 20 min, the reaction was terminated by adding 25 μL methanol, and m+1 and m+2 (as well as m+3 . . . m+6) were determined by GC/MS (CI mode, m/z 331 [m], 332 [m+1], 333 [m+2], . . . 337 [m+6]). The m+1 and m+2 [^13C] enrichments of the glucose C4C5C6 fragment were determined by generating the aldonitrile pentapropionate derivative: plasma or NMR liver extract samples were dried under N2 gas, and 50 μl hydroxylamine hydrochloride (20 mg/ml in pyridine) were added. The samples were heated at 90° C. for 60 min, then 100 μl propionic anhydride was added, after which the samples were heated at 60° C. for 30 min. Finally, the samples were evaporated under N2 gas, resuspended in ethyl acetate, and the m+1 and m+2 enrichment of the glucose C4C5C6 fragment was measured by GC/MS.
[^13C]alanine enrichment was measured by GC/MS. [^13C] NMR spectroscopy using the BRUKER TOPSPIN® system was utilized to measure relative positional 13C-enrichment of glucose, and combined with the total [^13C]glucose enrichment ([m+1]+2*[m+2]) measured by GC/MS to calculate the positional enrichment of [13C]glucose.
Total [^13C]glutamate enrichment was determined by LC-MS/MS. Approximately 100 mg of liver tissue was weighed out and homogenized in 500 μl ice-cold methanol using a TissueLyser, then centrifuged at 4000 rpm for 10 minutes. The supernatant was then purified by centrifugation (4000 rpm, 10 min) through the PALL NANOSEP® filter (100K) (Port Washington, N.Y.). Glutamate 13C enrichment ([m+1], [m+2]) was then assessed by LC-MS/MS using an AB SCIEX QTRAP 6500 (Framingham, Mass.), equipped with a SHIMADZU ultra-fast liquid chromatography (UFLC) system (Columbia, Md.) and electrospray ionization (ESI) source with negative-ion detection. The measured ion pairs were 146/128 (m0), 147/129 (m+1), and 148/130 (m+2).
Positional enrichment of glucose, glutamate, and alanine was measured by 13C NMR.

The next data set has as its target T1, CPT-1 (Rattus norvegicus, UniProt P32198).
T1 construct: from tissue; host or cells: live rat, in vivo (intraperitoneal dosing); liver is the tissue discussed
T1 sequence (P32198 1-773): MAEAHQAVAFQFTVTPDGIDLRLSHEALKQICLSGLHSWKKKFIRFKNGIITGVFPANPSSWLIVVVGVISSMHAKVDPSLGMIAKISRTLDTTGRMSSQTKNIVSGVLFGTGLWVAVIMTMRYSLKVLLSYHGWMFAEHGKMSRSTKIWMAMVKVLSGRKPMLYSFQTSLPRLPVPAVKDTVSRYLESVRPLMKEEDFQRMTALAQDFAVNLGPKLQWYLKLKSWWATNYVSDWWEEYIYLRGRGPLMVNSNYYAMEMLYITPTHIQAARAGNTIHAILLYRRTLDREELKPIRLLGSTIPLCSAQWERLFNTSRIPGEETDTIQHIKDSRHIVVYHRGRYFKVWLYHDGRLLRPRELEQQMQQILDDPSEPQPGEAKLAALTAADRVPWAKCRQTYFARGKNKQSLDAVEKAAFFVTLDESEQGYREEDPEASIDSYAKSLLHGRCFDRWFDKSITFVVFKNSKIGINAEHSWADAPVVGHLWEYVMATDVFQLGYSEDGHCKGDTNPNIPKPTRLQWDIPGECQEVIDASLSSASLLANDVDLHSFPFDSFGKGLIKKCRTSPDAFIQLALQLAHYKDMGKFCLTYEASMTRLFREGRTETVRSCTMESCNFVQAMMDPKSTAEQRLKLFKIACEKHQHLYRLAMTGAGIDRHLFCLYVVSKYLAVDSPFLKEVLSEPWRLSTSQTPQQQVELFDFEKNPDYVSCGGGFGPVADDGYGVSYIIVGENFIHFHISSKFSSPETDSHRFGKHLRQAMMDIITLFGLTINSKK
The data set is described as follows: CPT-1 inhibitor etomoxir in 0, 6, 16 and 48 hr fasted rats. In kind it is in vivo. Here is the method: 8, 16, and 48 hr fasted rats were injected with a small molecule inhibitor of glycogen phosphorylase, 1-(3-(3-(2-Chloro-4,5-difluorobenzoyl) ureido)-4-methoxyphenyl)-3-methylurea (Sigma #361515; 5 mg/kg IV) and a tracer infusion of [2,3,3,3-^2H4]alanine ([…]prime for 5 min and […] continuous) and [3-^3H]glucose (0.3 μCi/min prime for 5 min and 0.3 μCi/min continuous) as well as [^13C4] β-hydroxybutyrate, [1,1,2,3,3-^2H5]glycerol, and [^13C16]palmitate at the rates listed in Table 9, for 120 min. Blood samples were obtained before (time zero) and 120 min after treatment with the glycogen phosphorylase inhibitor for measurement of turnover rates and plasma hormone/substrate concentrations. Hepatic acetyl-CoA content was altered by treatment with a CPT-1 inhibitor (etomoxir, 8 mg/kg) or an ATGL inhibitor (atglistatin, […]) in 0, 6, 16, and 48 hr fasted rats. Both agents were solubilized by suspending the drug in 4% ethanol/96% normal saline, heating to 60° C., and sonicating, and were cooled to room temperature before they were injected intraperitoneally. […] In these animals plasma glucose concentrations were measured every 15 minutes and a variable infusion of 20% glucose (Pfizer Hospira, Lake Forest, Ill.) was used to maintain plasma glucose concentrations ˜3.6-3.7 mM. The physiologic role of glucocorticoids was assessed in 6 and 48 hr fasted rats by treatment with a glucocorticoid receptor antagonist, mifepristone. Following a 2 hr tracer infusion at the rates described above to assess fatty acid, glycerol, glucose, and β-hydroxybutyrate turnover, rats were injected with mifepristone (40 mg/kg) IV. The tracer infusion was continued and the tracer of each of the above substrates was again measured 2 hr after treatment with mifepristone.
All whole-body substrate turnover rates were calculated using the equation Turnover=([Tracer APE/Plasma APE]−1)*Infusion rate, where APE designates the atom percent enrichment measured by mass spectrometry as described below (Biochemical Analysis). All chemicals used for flux analysis were obtained from SIGMA. Turnover of glucose, glycerol, and β-hydroxybutyrate were determined by gas chromatography-mass spectrometry (GC-MS). Briefly, both glucose and glycerol were deprotonized with 5 volumes of methanol, derivitized with 3 volumes of 1:1 acetic anhydride:pyridine, heated to 65° C. for 20 min, and 1 volume of methanol was added, then GC-MS was used in CI mode to measure glucose enrichment and EI mode to measure glycerol enrichment, with turnover calculated using the equation above. β-Hydroxybutyrate was deprotonized with 5 volumes of methanol and derivitized with 3 volumes of n-butanol 4N HCl, after which the samples were heated to 65° C. for 60 min, evaporated under N2 gas, and re-suspended in […] of trifluoroacetic acid:methylene chloride (1:7). Fatty acid turnover was measured by determining the plasma palmitate enrichment by GC-MS. Samples were prepared for measurements of palmitate enrichment by evaporating […] plasma, dissolving in […] 1:1 chloroform:methanol and derivitizing with […] boron trifluoride/methanol, then heating to 100° C. for 5 min, adding 2 mL pentane and 1 mL water, and centrifuging at low speed for 5 min. […] Alanine turnover was determined in rats infused with [2,3,3,3-^2H4]alanine by preparing samples to measure alanine enrichment by GC/MS (CI mode) using the same protocol as was employed to measure β-hydroxybutyrate enrichment.

Data set [2] deals with primary mouse hepatocytes. The data set is described as follows: In vitro glucose production, VPC and lipolysis in isolated hepatocytes. In kind it is cell-based. Particulars: isolated hepatocytes, 1 mM hydroxymalonate. The protocol: For in vitro glucose production and lipolysis studies, primary mouse hepatocytes were isolated by the Yale Liver Center. Following removal of cell debris by Percoll density gradient centrifugation, cells were plated on 6-well collagen-I coated dishes (4.0×10^5 cells/well) in 2 ml recovery media (DMEM High Glucose containing 10% FBS, 2% penicillin-streptomycin, 100 nM dexamethasone, 1 nM insulin, and 10 mM HEPES). After incubation for 6 hr at 37° C. and 5% CO2, the attached cells were washed once in 1×PBS and then incubated overnight in 2 ml Low Glucose Culture Media (DMEM Low Glucose supplemented with 10% FBS, 2% penicillin-streptomycin and 10 mM HEPES for glucose production studies) or Serum Free Low Glucose Culture Media (DMEM Low Glucose supplemented with 0.5% fatty acid free BSA, 2% penicillin-streptomycin and 10 mM HEPES for lipolysis assays). […] After incubation for 8 hr at 37° C. and 5% CO2, cell culture media was collected for analysis of glucose, NEFA, and glycerol concentrations as described above. VPC was determined by measuring VPC/VEGP by PINTA as described above using 300 μL of the collected media, and multiplying this ratio by the measured glucose production rate. In a subset of studies, cells were incubated for 8 hr during the glucose production assay in media containing one of the following agents (all dissolved in 0.5% DMSO), or 0.5% DMSO vehicle: 20 μM ET-18-OCH3 (Santa Cruz), 100 μM U-73122 (Sigma), 30 nM thapsigargin (Sigma), 100 nM vasopressin (Sigma) 50 μM 2-APB (R&D Systems), 70 μM caffeine (Sigma), 1 mM malic enzyme inhibitor hydroxymalonate (Sigma). To inhibit PKA, hepatocytes were incubated in H-89 […] hydrate (Sigma, 25 μM) dissolved in media, or media lacking H-89 as a control. In the insulin treatment studies, hepatocytes were incubated in 1 nM insulin with 5% BSA and glucose production media for the duration of the glucose production assay. In the in vitro atglistatin study, hepatocytes were incubated in 10 μM atglistatin in 0.1% EtOH, or 0.1% EtOH vehicle. All values were normalized to total protein content determined from whole-cell lysates by a BCA protein assay (Thermo Fisher Scientific) according to the manufacturer's instructions and expressed as fold change verses vehicle-treated cells.

On to `CNC[C@H](O)c1ccc(O)c(O)c1` [Epinephrine, epinephrine], for which, in data set [1], the “VPDH/VCS (%)” value amounted to 4.3 ± 1.0%, the “VPK+ME/VPC+PDH (%)” value was found to be 5.4 ± 0.1% and the “VPC/VEGP (%)” value is on record as 67 ± 2%.

In data set [1] (rats infused with 40 μmol/(kg-min)), `[13CH3]C(O)C(=O)O` (stereo not shown) [[3-^13C]lactate] yielded a plasma lactate enrichment of roughly 45%.

As for `CCOC(=O)[C@@]1(CCCCCCOc2ccc(Cl)cc2)CO1` [etomoxir], at CPT-1 (16- and 48-hr fasted rats), the plasma corticosterone concentrations entry is “increases” and the “reductions in plasma leptin concentrations” value amounted to 50%. Besides, the “hepatic acetyl-CoA content, hepatic gluconeogenesis, and plasma glucose and insulin concentrations” value on CPT-1 (16- to 48-hr fasted rats) was “suppressed”. On CPT-1 (fasted rats), the WAT lipolysis result was “increased”; the “hepatic acetyl-CoA content” value was “suppression”; the “plasma epinephrine or norepinephrine concentrations” value is recorded as “no differences”; the “plasma lactate and hepatic malonyl-CoA concentrations” value is given as “unchanged”. The β-hydroxybutyrate turnover entry at CPT-1 (fasted rats) is reported as “suppression”. Besides, at CPT-1 (fasted rats, 8 mg/kg IP, 2 hr), the plasma glucose concentrations entry is listed as “lowered”, the plasma insulin concentrations result is “lowered” and the “whole body glucose turnover” value is given as “lowered”.

On to `O=C(O)C(O)C(=O)O` [ME inhibitor, hydroxymalonate], for which the “basal or glucagon-stimulated glucose production or VPC” value in data set [2] is “no impact”. Also, in data set [1], the “VPDH/VCS (%)” value turned out to be 2.0 ± 1.1%, the “VPK+ME/VPC+PDH (%)” value stood at 7.9 ± 2.1% and the “VPC/VEGP (%)” value came out at 50 ± 2%.
